Test results reported in patent publication US20110173718A1, “HERBICIDE TOLERANT PLANTS” (SYNGENTA CROP PROTECTION, INC., priority 2008, published 2011).
“And” between values parts separate entries of the source, which are not always exact repeats. Equal values may be shown once.

What was measured:
Format in all cases: in vivo
[1] = system: tobacco (var Samsun) plantlets on liquid culture medium; test: HST + HPPD herbicide effects on tobacco seedlings on liquid culture medium; conditions: for % Injury (bleaching), mesotrione by itself: 0.75% v/v DMSO, 20 DAT
Description: In an alternative herbicide test procedure tobacco (var Samsun) plantlets germinated aseptically in agar made up in 1/3 strength Murashige and Skoog salts medium are transferred after 4 d to float on top of 2.9 ml of sterile liquid culture medium (half strength Murashige and Skoog medium containing 30 mM sucrose) in wells of 12 well plates. Test compounds are added at various doses and bleaching damage is assessed after 14-20 DAT. The plantlets are kept covered under clear perspex and grown at 18° C. (night) and 24° C. (day) under a 1611 day (˜500-900 umol/m^2), 8 h darkness regime Plantlets continue to grow and produce new tissue over the 14-20 DAT period but are bleached and grow less in the presence of controlling concentrations of herbicide.

[2] = system: tobacco plants expressing Pseudomonas fluorescens HPPD; test: Glasshouse spray test, Pseudomonas HPPD transgenic tobacco; conditions: for % damage at 7 DAT: C2 line (Pseudomonas HPPD, T2), individual plants; for % damage observed 16 DAT: Pseudomonas HPPD T1
From the text: Tobacco plants expressing the wild-type HPPD gene of Pseudomonas fluorescens strain 87-79 under operable control of the double enhanced 35S CMV promoter region, Nos3′ terminator and TMV translational enhancer were provided as detailed in Example 4 of WO0246387.
Seed of wild-type tobacco plants, C2 tobacco plants and of the T1 progeny of a further Arabidopsis-HST expressing tobacco line, D2 were planted out in 3 inch pots, grown on, sprayed with compounds 1.1, 2.30 and 3.6 at the rates shown in table 5. Percent damage scores were assessed at 7 DAT. Aside from the presumptive non-transgenic segregants the D2 line containing the Arabidopis HST expression construct offered the highest level of tolerance to the two HST herbicides with the Psuedomonas HPPD, C2 line, offering only marginal tolerance under the conditions of this test.
Transgenic lines of tobacco, soyabean and corn etc. can be engineered to express various heterologous HPPDs derived from, for example Avena (SEQ ID #26), Wheat (SEQ ID #27), Pseudomonas fluorescens (SEQ ID # 25) and Shewanella colwelliana (SEQ ID #28) as, for example, described in WO 02/46387.
Single copy events amongst the T1 plant lines are identified by their 3:1 segregation ratio (wrt kanamycin and or herbicide) and by quantitative RT-PCR. Seed from the thus selected T1 tobacco (var Samsun) lines are sown in 3 inch diameter pots containing 50% peat, 50% John Innes soil no 3. After growth to the 3 leaf stage, plants are sprayed, as described above, in order to test for herbicide tolerance relative to like-treated non-transgenic tobacco plants.
Control tobacco plants and transgenic T1 plants expressing either the Pseudomonas or the wheat HPPD gene are sprayed at 37, 111, 333 and 1000 g/ha rates of HST inhibitors and, for example, compound 2.3.
Plants are assessed and scored for % damage at 16 DAT.

weeds = test: Glasshouse weed control, HST inhibitors alone and with A22, pre-emergence; conditions: 14 DAT
Method in brief: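 Weeds grown in glasshouse trays (24-27 C day, 18-21 C night, ~15 h photoperiod) and track-sprayed in 0.2% X77 at […], pre-emergence or post-emergence at about 7-12 d. HPPD inhibitor A22 applied at 2 g/ha alone or mixed with HST herbicides. Damage scored 0–100% at 14 DAT; synergy calculated by Colby formula.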

Q: Which results are given for `Oc1c(Cl)c(F)nc(F)c1Cl` [Compound 1.1, haloxydine]?
A: % bleaching, +mesotrione 0.001 ppm ([1]; 0.19 ppm + mesotrione 0.001 ppm, liquid culture medium, 14 DAT): 100%; % bleaching, HST herbicide alone ([1]; 0.19 ppm, liquid culture medium, 14 DAT): 50%; % bleaching, +mesotrione 0.001 ppm ([1]; 0.58 ppm + mesotrione 0.001 ppm, liquid culture medium, 14 DAT): 100%; % bleaching, HST herbicide alone ([1]; 0.58 ppm, liquid culture medium, 14 DAT): 90%; % bleaching, +mesotrione 0.001 ppm ([1]; 1.7 ppm + mesotrione 0.001 ppm, liquid culture medium, 14 DAT): 100%; % bleaching, HST herbicide alone ([1]; 1.7 ppm, liquid culture medium, 14 DAT): 100%; % bleaching, +mesotrione 0.001 ppm ([1]; 5.2 ppm + mesotrione 0.001 ppm, liquid culture medium, 14 DAT): 100%; % bleaching, HST herbicide alone ([1]; 5.2 ppm, liquid culture medium, 14 DAT): 100%; % bleaching, +mesotrione 0.001 ppm ([1]; 16 ppm + mesotrione 0.001 ppm, liquid culture medium, 14 DAT): 100%; % bleaching, HST herbicide alone ([1]; 16 ppm, liquid culture medium, 14 DAT): 100%; % bleaching, +mesotrione 0.001 ppm ([1]; 47 ppm + mesotrione 0.001 ppm, liquid culture medium, 14 DAT): 100%; % bleaching, HST herbicide alone ([1]; 47 ppm, liquid culture medium, 14 DAT): 100%; effect of low amounts of mesotrione on the injury down the dose response ([1]; liquid culture, repeat experiments): clear synergistic effects; % damage at 7 DAT ([2]; 25 gai/ha): 75%

Q: `CC(C)C(=O)Oc1c(-c2c(F)ccc(Br)c2Cl)c(=O)n(CC(F)F)c2nccnc12` [Compound 2.30] was tested. Which “% damage at 7 DAT” value ([2]; 150 gai/ha) did it give?
A: 90% and 70% and 80% (2×)

Q: What about the “% damage at 7 DAT” value ([2]; 300 gai/ha) of the same compound?
A: 85%

Q: And the “% damage at 7 DAT” value ([2]; 450 gai/ha)?
A: 65% and 70% and 85% (2×)

Q: `O=c1c(-c2c(F)ccc(F)c2Cl)c(O)c2nccnc2n1CC(F)F` [Compound 2.3] was tested. Which “BRAPL Obs, % control score” value (weeds; HST inhibitor rate 15.625 g/ha) did it give?
A: 0%

Q: And the “BRAPL Obs, % control score” value (weeds; HST inhibitor rate 62.5 g/ha)?
A: 2%

Q: What about the “BRAPL Obs, % control score” value (weeds; HST inhibitor rate 250 g/ha) of the same compound?
A: 40%

Q: And the “DIGSA Obs, % control score” value (weeds; HST inhibitor rate 15.625 g/ha)?
A: 0%

Q: What about the “DIGSA Obs, % control score” value (weeds; HST inhibitor rate 62.5 g/ha) of the same compound?
A: 0%

Q: What about the “DIGSA Obs, % control score” value (weeds; HST inhibitor rate 250 g/ha) of the same compound?
A: 40%

Q: What about the “ECHCG Obs, % control score” value (weeds; HST inhibitor rate 15.625 g/ha) of the same compound?
A: 0%

Q: What about the “ECHCG Obs, % control score” value (weeds; HST inhibitor rate 62.5 g/ha) of the same compound?
A: 10%

Q: And the “ECHCG Obs, % control score” value (weeds; HST inhibitor rate 250 g/ha)?
A: 50%

Q: And the “PANMI Obs, % control score” value (weeds; HST inhibitor rate 15.625 g/ha)?
A: 0%

Q: What about the “PANMI Obs, % control score” value (weeds; HST inhibitor rate 62.5 g/ha) of the same compound?
A: 0%

Q: And the “PANMI Obs, % control score” value (weeds; HST inhibitor rate 250 g/ha)?
A: 50%

Q: What about the “SETFA Obs, % control score” value (weeds; HST inhibitor rate 15.625 g/ha) of the same compound?
A: 0%

Q: What about the “SETFA Obs, % control score” value (weeds; HST inhibitor rate 62.5 g/ha) of the same compound?
A: 5%

Q: What about the “SETFA Obs, % control score” value (weeds; HST inhibitor rate 250 g/ha) of the same compound?
A: 30%

Q: What about the “SIDSP Obs, % control score” value (weeds; HST inhibitor rate 15.625 g/ha) of the same compound?
A: 0%

Q: What about the “SIDSP Obs, % control score” value (weeds; HST inhibitor rate 62.5 g/ha) of the same compound?
A: 0%

Q: And the “SIDSP Obs, % control score” value (weeds; HST inhibitor rate 250 g/ha)?
A: 20%

Q: And the “% damage observed 16 DAT” value ([2]; 37 g/ha)?
A: 0%

Q: What about the “% damage observed 16 DAT” value ([2]; 111 g/ha) of the same compound?
A: 3%

Q: What about the “% damage observed 16 DAT” value ([2]; 333 g/ha) of the same compound?
A: 6%

Q: And the “% damage observed 16 DAT” value ([2]; 1000 g/ha)?
A: 10%

Q: How did the “damage by mesotrione alone” value ([1]; lower dose of mesotrione used in the mixtures) turn out when `CS(=O)(=O)c1ccc(C(=O)C2C(=O)CCCC2=O)c([N+](=O)[O-])c1` [Mesotrione, mesotrione, reference compound] was run?
A: no visible damage

Q: And the “% Injury (bleaching), mesotrione by itself” value ([1]; mesotrione 0.0005 ppm, liquid culture)?
A: 0%

Q: And the “% bleaching, mesotrione by itself” value ([1]; mesotrione 0.001 ppm, 0.75% DMSO, liquid culture medium, 14 DAT)?
A: 5%

Q: What about the “% Injury (bleaching), mesotrione by itself” value ([1]; mesotrione 0.001 ppm, liquid culture) of the same compound?
A: 20%

Q: What about the “% damage observed 16 DAT” value ([2]; 37 g/ha) of the same compound?
A: 3%

Q: What about the “% damage observed 16 DAT” value ([2]; 111 g/ha) of the same compound?
A: 3%

Q: What about the “% damage observed 16 DAT” value ([2]; 333 g/ha) of the same compound?
A: 43%

Q: And the “% damage observed 16 DAT” value ([2]; 1000 g/ha)?
A: 67%
